Results published in ChEMBL document CHEMBL1649371, “Isoxazolidinyl polycyclic aromatic hydrocarbons as DNA-intercalating antitumor agents” (Eur J Med Chem, 2011).
Active and inactive are the calls of the source. No cut-off for these calls is given here. Numbered stars: 1 amine (or outer) side, 2 acyl side, 3 side chain; on linkers, the order of the positions; unused ones are H or OH. Bridge positions count the residues as written; N and C are the ends. Square brackets hold non-standard residues; d marks the D form. Peptide text beside a SMILES is read from it. I, II: the chains in the order shown. Actinocin(1to9) = Cc1c2oc3c(C)ccc(C(=O)[*:2])c3nc-2c(C(=O)[*:1])c(N)c1=O; NMeV = CN[C@H](C(=O)O)C(C)C; Sar = CNCC(=O)O

What was measured:
HeLa = assay: Cytotoxicity against human HeLa cells after 20 hrs by MTS assay; type: functional, cell-based
A549 [1] = assay: Cytotoxicity against human A549 cells by SRB assay; type: functional, cell-based
MOLT-3 = assay: Cytotoxicity against human MOLT3 cells after 20 hrs by MTS assay; type: functional, cell-based; details: MOLT-3, 20 h
THP-1 = assay: Cytotoxicity against human THP1 cells after 20 hrs by MTS assay; type: functional, cell-based; details: THP-1, 20 h
U-937 = assay: Cytotoxicity against human U937 cells after 20 hrs by MTS assay; type: functional, cell-based; details: U-937, 20 h
Vero = assay: Cytotoxicity against african green monkey Vero cells after 20 hrs by MTS assay; type: cell-based; details: Chlorocebus sabaeus
Nucleic Acid = assay: Binding affinity to Escherichia coli phiX174 RF1 DNA assessed as DNA unwinding in presence of topoisomerase 1 after 30 mins by electrophoresis; type: nucleic-acid assay
Calf thymus DNA = assay: Binding affinity to calf thymus DNA by UV spectral analysis; type: nucleic-acid assay; details: Bos taurus
A549 [2] = assay: Cytotoxicity against human A549 cells assessed as decrease of viable cells at 0.5 ug/ml after 8 hrs relative to control; type: functional

SMILES | IC50 (HeLa) [µM] | IC50 (A549 [1]) [µM] | IC50 (MOLT-3) [µM] | IC50 (THP-1) [µM] | IC50 (U-937) [µM] | IC50 (Vero) [µM] | Activity (Nucleic Acid) | Kb (Calf thymus DNA) | Activity (A549 [2]) [%]
NC[C@H]1C[C@H](c2cc3ccccc3c3ccccc23)N(Cc2ccccc2)O1 (racemic) | 45 | 35 | 50 | 61 | 112 | 140 | – | – | –
CN1O[C@H](CN)C[C@@H]1c1ccc2ccc3cccc4ccc1c2c34 (racemic) | 15 | 9 | 12 | 19 | 88 | 102 | Active | 9.6 ×10⁴ /M | –
NC[C@@H]1C[C@H](c2cc3ccccc3c3ccccc23)N(Cc2ccccc2)O1 (racemic) | 50 | 32 | 43 | 55 | 154 | 132 | – | – | –
CN1O[C@@H](CN)C[C@@H]1c1ccc2ccc3cccc4ccc1c2c34 (racemic) | 15 | 11 | 17 | 18 | 80 | 110 | – | – | –
Cc1c2oc3c(C)ccc(C(=O)N[C@@H]4C(=O)N[C@H](C(C)C)C(=O)N5CCC[C@H]5C(=O)N(C)CC(=O)N(C)[C@@H](C(C)C)C(=O)O[C@@H]4C)c3nc-2c(C(=O)N[C@@H]2C(=O)N[C@H](C(C)C)C(=O)N3CCC[C@H]3C(=O)N(C)CC(=O)N(C)[C@@H](C(C)C)C(=O)O[C@@H]2C)c(N)c1=O [DACTINOMYCIN] (I: T[dV]P[Sar][NMeV] / II: T[dV]P[Sar][NMeV]; ester I:1-I:C, II:1-II:C; linker I:N-II:N via Actinocin(1to9)) | – | – | ≤ 1 | – | – | – | – | – | 40
CN1O[C@@H]2C(=O)NC(=O)[C@@H]2[C@@H]1c1ccc2ccc3cccc4ccc1c2c34 (racemic) | 284 | 328 | 415 | 399 | > 500 | > 500 | – | – | –
CN1O[C@H]2C(=O)NC(=O)[C@H]2[C@@H]1c1ccc2ccc3cccc4ccc1c2c34 (racemic) | 135 | 83 | 95 | 102 | 130 | 150 | – | – | –
CN1O[C@H](CO)C[C@@H]1c1ccc2ccc3cccc4ccc1c2c34 | – | – | – | – | – | – | – | 6.8 ×10³ /M | –
